Assay results published in PubChem BioAssay (NCI).
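Where inhibition never reached the appropriate level, the endpoint shown equals the highest concentration tested. Otherwise, values were interpolated linearly from a five-concentration, 48-hour dose response in 96-well plates. GI50 is the concentration that inhibits growth by half. Definition used: TGI = concentration required for complete inhibition of growth.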

Legend:
Test in all cases: growth of human tumour cells (NCI), 48 h
ACHN renal = test system: ACHN renal
CAKI-1 renal = test system: CAKI-1 renal
HT29 colon = test system: HT29 colon
M14 melanoma = test system: M14 melanoma
NCI-H226 lung = test system: NCI-H226 lung
NCI-H23 lung = test system: NCI-H23 lung
OVCAR-8 ovarian = test system: OVCAR-8 ovarian
SK-MEL-28 melanoma = test system: SK-MEL-28 melanoma
SK-MEL-5 melanoma = test system: SK-MEL-5 melanoma
OVCAR-3 ovarian = test system: OVCAR-3 ovarian

Structure (SMILES) | TGI (ACHN renal) | TGI (CAKI-1 renal) | TGI (HT29 colon) | TGI (M14 melanoma) | TGI (NCI-H226 lung) | TGI (NCI-H23 lung) | TGI (OVCAR-8 ovarian) | TGI (SK-MEL-28 melanoma) | TGI (SK-MEL-5 melanoma) | GI50 (ACHN renal) | GI50 (CAKI-1 renal) | GI50 (HT29 colon) | GI50 (M14 melanoma) | GI50 (NCI-H226 lung) | GI50 (NCI-H23 lung) | GI50 (OVCAR-3 ovarian) | TGI (OVCAR-3 ovarian) | GI50 (OVCAR-8 ovarian) | GI50 (SK-MEL-28 melanoma) | GI50 (SK-MEL-5 melanoma)
O=c1[nH]c(Nc2nc3ccccc3[nH]2)nc(O)c1Cc1ccccc1 | > 100 µM | > 100 µM | > 100 µM | > 100 µM | > 100 µM | > 100 µM | > 100 µM | > 100 µM | > 100 µM |  |  |  |  |  |  |  |  |  |  | 
CCN(CCN(CC)C(=O)Nc1ccccc1)C(=O)Nc1ccccc1 | > 100 µM |  | > 100 µM | > 100 µM | > 100 µM | > 100 µM | > 100 µM | > 100 µM | > 100 µM |  |  |  |  |  |  |  |  |  |  | 
COc1ccc(Nc2ccc([N+](=O)[O-])cc2[N+](=O)[O-])cc1CN(CCCl)CCCl | 5.94 µM | 4.33 µM | 9.59 µM | 19.6 µM | 21.4 µM | 5.77 µM | > 100 µM | 18.4 µM |  | 1.63 µM | 1.39 µM | 2.44 µM | 2.72 µM | 3.49 µM | 2.04 µM | 2.36 µM | 7.85 µM | 3.02 µM | 3.24 µM | 
CC1CC(C#N)=C2NCCN2C1=O (centres undefined) |  | > 100 µM | > 100 µM | 33.5 µM | > 100 µM | > 100 µM | > 100 µM | > 100 µM | 28.5 µM |  |  |  |  |  |  |  | > 100 µM |  |  | 
COc1cc(O)c2c(=O)c(OC)c(-c3ccc(OC)c(OC)c3)oc2c1 | > 100 µM | 57.1 µM | > 100 µM | > 100 µM |  |  | > 100 µM | 51.6 µM | > 100 µM | > 100 µM |  | > 100 µM | > 100 µM |  |  | > 100 µM | > 100 µM | > 100 µM | 18 µM | 82 µM
O=[N+]([O-])c1ccc(C(O)(C#CCN2CCCC2)c2ccccc2)cc1 (centres undefined) | > 100 µM |  | 34 µM | 33.6 µM | > 100 µM | > 100 µM | > 100 µM | 34 µM | 42.6 µM |  |  |  |  |  |  |  | > 100 µM |  |  | 
COc1cccc(C2c3cc4c(cc3OC3COC(=O)C32)OCO4)c1OC (centres undefined) | > 100 µM | > 100 µM | > 100 µM | > 100 µM | > 100 µM |  | > 100 µM | > 100 µM | > 100 µM |  |  |  |  |  |  |  | > 100 µM |  |  | 
COc1cc(Oc2nc3ccc(C(F)(F)F)cc3nc2-c2ccccc2)cc(OC)c1OC | 40.6 µM | 17.3 µM | > 100 µM |  | > 100 µM | > 100 µM | > 100 µM | > 100 µM | 44.9 µM |  |  |  |  |  |  |  | 97.1 µM |  |  | 
CO/N=C1/c2sccc2[C@H](NC(=O)C(Cc2ccccc2)NC(=O)OC(C)(C)C)[C@@H]1O (some centres undefined) |  | > 100 µM | > 100 µM | > 100 µM | > 100 µM | > 100 µM | > 100 µM | > 100 µM | > 100 µM |  |  |  |  |  |  |  | > 100 µM |  |  | 
O=C1CCCC/C1=C\c1ccc(Cl)c(Cl)c1 | 33.5 µM | 37.6 µM | 55.1 µM | 42.2 µM |  | 71.3 µM | 78 µM | 37.7 µM | 32.5 µM |  |  |  |  |  |  |  |  |  |  | 
CCOC(=O)C1CCCCN1C(=O)Cc1c[nH]c2ccccc12 (centres undefined) | > 100 µM | > 100 µM | > 100 µM | > 100 µM | > 100 µM | > 100 µM | > 100 µM | > 100 µM |  |  |  |  |  |  |  |  | > 100 µM |  |  | 
CSc1c(C#N)c(N)n(-c2ccc(Cl)cc2)c(=O)c1C#N |  | > 100 µM | > 100 µM | > 100 µM | > 100 µM | > 100 µM | > 100 µM | > 100 µM | > 100 µM |  |  |  |  |  |  |  | > 100 µM |  |  | 
CN1CCN(P2(=S)Oc3ccc4ccccc4c3-c3c(ccc4ccccc34)O2)CC1 |  | > 67.5 µM | 49.8 µM |  | > 92.3 µM | > 100 µM | > 100 µM | > 100 µM | 53.2 µM |  |  |  |  |  |  |  | > 100 µM |  |  | 
COC(=O)Cc1c(-c2c(CC(=O)OC)c3ccccc3n2C2OC(COC(C)=O)C(OC(C)=O)C(OC(C)=O)C2OC(C)=O)[nH]c2ccccc12 (centres undefined) |  | > 100 µM | > 100 µM | > 100 µM |  | > 100 µM |  | > 100 µM | > 100 µM |  |  |  |  |  |  |  | > 100 µM |  |  | 
O=C(O)c1ccccc1N=Nc1c(O)c(S(=O)(=O)O)cc2cc(S(=O)(=O)O)ccc12 | > 100 µM | > 100 µM | > 100 µM | > 100 µM |  | > 100 µM | > 100 µM | > 100 µM | > 100 µM |  |  |  |  |  |  |  | > 100 µM |  |  | 
CCOC(=O)c1c[nH]c2ccc3c(c2c1=O)S(=O)(=O)CC3 (tested in a mixture with another compound) |  | > 100 µM | > 100 µM |  | > 100 µM | > 100 µM | > 100 µM | > 100 µM | > 100 µM |  |  |  |  |  |  |  | > 100 µM |  |  | 
Cc1cc(NS(=O)(=O)c2ccc(NC(=O)c3cccc4c(Nc5ccc(S(N)(=O)=O)cc5)c5ccccc5nc34)cc2)no1 | > 100 µM |  | > 100 µM | > 100 µM |  | > 100 µM |  | > 100 µM |  |  |  |  |  |  |  |  | > 100 µM |  |  | 
COc1cc(CNc2nc3ccccc3nc2C(=O)O)cc(OC)c1OC | > 100 µM | > 100 µM | > 100 µM |  | > 100 µM | > 100 µM | > 100 µM | > 100 µM | > 100 µM |  |  |  |  |  |  |  | > 100 µM |  |  | 
O=C1NC2CCCCCC2C12CCCCC2 (centres undefined) | > 100 µM |  | > 100 µM | > 100 µM | > 100 µM | > 100 µM |  | > 100 µM |  |  |  |  |  |  |  |  | > 100 µM |  |  | 
CC[C@@]1(O)C(=O)OCc2c1cc1n(c2=O)Cc2c-1nc1ccccc1c2/C=N\NC(=O)C(N)CCSC (some centres undefined) | < 0.0506 µM |  |  | 0.473 µM | 1.11 µM | 0.0526 µM | 4.36 µM | > 100 µM | 0.191 µM |  |  |  |  |  |  |  | 3.08 µM |  |  | 
C=CCOc1ccc(C2C(C(=O)OC)C(=O)CC(O)(c3ccccc3)C2C(=O)OC)cc1OC (centres undefined) | > 100 µM | > 100 µM | > 100 µM |  | 60.3 µM | > 100 µM | 50.4 µM | > 100 µM | > 100 µM |  |  |  |  |  |  |  | > 100 µM |  |  | 
CC(C)(CCC(C)(C)N1OC1c1ccccc1)N1OC1c1ccccc1 (centres undefined) | 35.8 µM | 60.3 µM | > 100 µM |  | > 100 µM | > 100 µM | > 100 µM | > 100 µM | 37.8 µM |  |  |  |  |  |  |  |  |  |  | 
O=C1Cc2c([nH]c3ccc(C(=O)O)cc23)-c2ccccc2N1 | > 100 µM | > 100 µM | > 100 µM | > 100 µM | > 100 µM | > 100 µM | > 100 µM | > 100 µM |  |  |  |  |  |  |  |  | > 100 µM |  |  | 
